Data set [1] has as its system 9 L (rat brain gliosarcoma cell line) tumor tissue. Kind of data set: Intranasal treatment of rats with intracranially transplanted 9 L tumor. Format: in vivo. As for the experimental part:
9 L (i.e., a rat brain gliosarcoma cell line) tumor tissue was intracranially transplanted into rats. The test of drug treatment was conducted after the intracranial tumor formed. The test method includes: (i) using 400 mg/kg of chloral hydrate (Sigma-Aldrich Company Ltd.) to anesthetize the rats, shaving the hair on the head of rats after the rats were in a coma, and fixing the rats in a stereotaxic instrument (Lab Standard™ Stereotaxic Instrument); (ii) scissoring the scalp by shears to expose the cranium, setting the bregma as a center, and drilling a 5 mm hole at the positioned drilling site 3 mm right to and 5 mm below the bregma on the cranium by a drill; (iii) clamping the prepared 9 L tumor tissue (1×1×1 mm^3) by a forceps and transplanting it into 3 mm depths within the brain, and then, resting for 1 minute to coagulate the blood, removing the forceps, and coating the bone wax on the hole, lastly, suturing the scalp of rats and administering the rats with antibiotics; (iv) 7 days after the transplantation of tumor tissue, randomly grouping the rats as the following Table 11, and then, sucking a drug (n-butylidenephthalide (BP) or pharmaceutical composition 5) by a pipette and dropping the drug into the nasal cavity of the rats to conduct an intranasal administration, and repeating the administration for 30 days and recording the body weight of rats and the number of dead rats during this medical treatment; and (v) removing the tumor, and then, measuring the length-breadth of tumor by an electronic vernier caliper and calculating the total volume of tumor by using the following Formula 3, measuring the weight of tumor at the same time, and drawing the obtained values into a bar diagram and a curve diagram, to determine the therapeutic effect.

Data set [2] in a line: Viscosity analysis (AR2000 rheometer). Format: physicochemical. The procedure:
The viscosity analysis was performed by measuring the relationship of viscosity of a sample to shear rate and rheological property of the sample using AR2000 rheometer (stress control) (from TA Instruments; measuring mold: cone and plate; amount of sample: 1 mL).

A further data set has as its system GBM 8401 cells. Kind of data set: Cytotoxicity test (IC50 value), MTT cell survival assay. The following applies: Homo sapiens, 24 hours. It is filed as cell-based. As for the experimental part: GBM 8401 cells (i.e., a human brain glioblastoma multiforme cell line) were cultured in a 96-well culture plate with a cell number of 6×10^3 per well, and treated with pure n-butylidenephthalide (BP) or one of the pharmaceutical compositions for 24 hours. The treatment concentrations of active ingredient, n-butylidenephthalide (BP), were 0 μg/mL (i.e., control group), 12.5 μg/mL, 25 μg/mL, 50 μg/mL, 100 μg/mL and 200 μg/mL, respectively. Then, the half maximal inhibitory concentration (IC50) of each pharmaceutical composition to GBM 8401 cells was analyzed by MTT (3-(4,5-cimethylthiazol-2-yl)-2,5-diphenyl tetrazolium bromide) cell survival assay, to evaluate the cytotoxic effect.

Data set [3] can be described thus: Room-temperature stability test: appearance of the composition. Format: physicochemical. The settings on record: PBS. The procedure: The stability study of the pharmaceutical composition was performed by: (1) observing the appearance of the pharmaceutical composition after storage at room temperature for 3 or 7 days, and classifying the results into “V” (if the pharmaceutical composition remained homogeneous) and “X” (if the pharmaceutical composition separated into two layers or had precipitation) to evaluate the appearance stability; and (2) analyzing the purity of n-butylidenephthalide by measuring the impurities in the pharmaceutical composition through relative retention time (RRT) using a LCMS instrument with the following conditions.

The test system of a further data set is RPMI 2650 cells. Kind of data set: In vitro cell line permeation test. It is filed as in vitro ADME, human. The following applies: RPMI 2650 cellular monolayer, 37° C., 6 hours. As for the experimental part:
(§1) [formula] V: Capacity of receptor chamber (mL) C0: Initial supplied concentration of drug (μg/mL) Peff: Permeability coefficient (cm/s) J: Flux (μg/cm^2·s) A: Superficial area of diffusion (cm^2)
(§2) [formula] Change of the concentration along with time under a stable status (μg/mLs)
(§3) RPMI 2650 cells (i.e., a human nasal septum squamous cell line) were seeded in a collagen-coated cell insert with 0.4 μm pore size and cultured for 2 days to lead the cells to form a cellular monolayer on the insert. The cell insert was then transferred into a 12-well plate with 1.5 mL of Hepes buffer inside. 0.5 mL of Hepes buffer containing pure n-butylidenephthalide or the pharmaceutical composition was added into the 12-well plate. Next, the 12-well plate was placed into an incubator (37° C., 5% CO2) and incubated. The buffer in each well of the 12-well plate was collected every 1 hour (6 hours in total), and the absorption spectrum of the sampled buffer was detected by a spectrophotometer at […] wavelength to calculate the concentration of n-butylidenephthalide or the pharmaceutical composition. The permeability coefficient (Peff) and flux (J) were calculated by using the above Formula 1 and Formula 2.

Data set [4] can be described thus: In vitro cell line permeation test. It is filed as in vitro ADME, human. The settings on record: human, RPMI 2650 cellular monolayer, 37° C., read-out: Peff ± SD. As for the experimental part:
as §1, §2, §3

Data set [5] can be described thus: Droplet size, electrical conductivity and zeta potential analyses. It is filed as physicochemical. The settings on record: sample with n-butylidenephthalide 200 μg/mL. The procedure: The pharmaceutical composition was formulated to provide a sample in which the concentration of n-butylidenephthalide is 200 μg/mL. The droplet size, electrical conductivity and zeta potential of the sample were analyzed using a high concentration nano-droplet size and zeta potential meter (Malvern Nano-ZS ZEN-3600).

The nature of data set [6]: In vitro artificial cellulose membrane test (Franz diffusion device). The following applies: 37° C., 10 hours. It is filed as in vitro ADME. The procedure: A Franz diffusion device (SUNMEI instruments Co., Ltd, Taiwan) shown in FIG. 5 was used to estimate the ability of pure n-butylidenephthalide (BP) liquid and the pharmaceutical compositions to permeate trough the artificial cellulose membrane, to simulate their permeation through a nasal mucosa. The superficial area of diffusion of the device is about 4.5 cm^2, and the capacity volume of receptor chamber of the device is about 23 mL. […]

Data set [7] is described as follows: Solubility of n-butylidenephthalide in solvents. It is filed as physicochemical. The settings on record: organic solvent or mixture.

In brackets after ≈: the same amount, converted by molar mass.

The IC50 is the point on the concentration scale where inhibition reaches its midpoint. A higher IC50 goes with weaker potency. For orientation: solubility means how much of the substance goes into solution per volume. In the case of `CCCC=C1OC(=O)c2ccccc21` [Pure BP, n-butylidenephthalide], the Growth of tumor result in data set [1] (160 mg/kg or 320 mg/kg, compared to control group) was “effective in inhibiting the growth of tumor”. Further, in data set [1] (160 mg/kg, 30 days), the Survival rate result was “significantly increased and similar survival rates”; the “Volume and weight of tumor” value is “significantly reduced and similar volume and weight of tumor”. Besides, the “Average viscosity ± SD” value in data set [2] (cone and plate, 1 mL sample) is listed as 1.57 ± 0.01 ×10^−2 Pa · s. Further, the “Rheological property (Newtonian or non-Newtonian fluid)” value in [2] (viscosity versus shear rate) is “Newtonian fluids”. 70 µg/mL (≈ 0.372 mM) corresponded to half-maximal inhibition with GBM 8401 cells (IC50). Besides, the “Amount stable in the medium system” value in [3] (polyethoxylated castor oil, and ethanol with polypropylene glycol) is recorded as “up to 208 mg/mL”. In data set [3] (polyethoxylated castor oil, and polyethylene glycol with dimethyl sulfoxide or with ethanol (Examples 1, 5 and 6)), the “Amount stable in the medium system” value was “up to 1000 mg/mL”. The “Flux ± SD” value with RPMI 2650 cells is reported as 0.32 ± 0.02 10^−3 μg/cm^2 · s. Also, the Papp at 6 h in data set [4] came out at 1.59 ± 0.09 ×10⁻⁶ cm/s. In data set [5], the Electrical conductivity was 0.02 mS/cm and the Zeta potential was found to be 0.38 mV. For the same molecule, in [6], the “Flux ± SD” value is given as 2.29 ± 0.23 10^−3 μg/cm^2 · s and the “Peff ± SD” value is reported as 0.76 ± 0.08 10^−6 cm/s. The solubility in data set [7] (in ethanol) was greater than 222 mg/mL. Further, the solubility in data set [7] (in polyethylene glycol 400, polyethylene glycol 300 or polypropylene glycol) was in the range of 70 to 120 mg/mL (≈ 372 to 638 mM).

Source of the values: patent US9504751B2, “Stable pharmaceutical composition” (EVERFRONT BIOTECH INC., priority 2014, dated 2016).
